Laboratory results from paper PMC8706998, “Lipid Nanocarriers-Loaded Nanocomposite as a Suitable Platform to Release Antibacterial and Antioxidant Agents for Immediate Dental Implant Placement Restorative Treatment” (Pharmaceutics, 2021).
Where “and” joins values, the source holds several entries; their conditions need not be identical. Identical values can stand only once.

Key:
[1] = cited from earlier work
[2] = Screening of the liquid lipids: visual evaluation of QRC dissolution (5% w/w); assay type: physicochemical; conditions: QRC 5% w/w (5:95)
Protocol: Labrasol®, Capryol PGMC®, Plurol®, Maisine®, Labrafil® M 1944 CS, and PEG-18 G/C were selected as liquid lipids to evaluate their ability to completely dissolve the desired amount of QRC (5% w/w). Briefly, 50 mg of QRC was added to 950 mg of each lipid. Each mixture was then ultrasonicated (Emerson Branson 1200, Branson, Brookfield, USA) for 15 min, allowing QRC powder disaggregation. Then, mixtures were maintained under magnetic stirring (200 rpm) and kept in a silicone thermostatic bath heated up to 60 °C (Heidolph MR3001K, Schwabach, Germany) for 30 min. After cooling at room temperature, samples were evaluated in terms of appearance and clearness.

DPPH antioxidant assay = assay type: biochemical; conditions: 0.08-0.01 mg/mL
Protocol: To evaluate the antioxidant activity of BioQ-CPX, the 2,2-diphenyl-1-picrylhydrazyl (DPPH) assay was performed. […] A measure of 0.5 mL of nanocomposite solution was transferred in polystyrene cuvette, added to 2.5 mL of DPPH ethanol solution (0.0295 mg/mL), and preserved by light exposure using foil. At determined time intervals (0, 0.25, 1, and 2 h), the DPPH concentration was measured spectrophotometrically at room temperature by observing the spectral range 400-800 nm and selecting λmax = 515 nm for quantification. The DPPH calibration curve was constructed analyzing DPPH ethanol solutions in the concentration range of 0.039-0.0156 mg/mL (λmax = 515 nm, regression equation: […] Results are expressed as means ± SE.

[3] = QRC and CPX solubility studies in aqueous media; assay type: physicochemical; conditions: for solubility at 120 min: 37 °C, pH 5.5, aqueous with cosolvent or surfactant or cyclodextrin, thermodynamic from solid, 37 ± 0.5 °C
Protocol: QRC, in excess, was added to each medium (1 mL) until precipitation occurred. […] The solubility tests were performed in triplicate. Results are reported as means ± SE.

[4] = QRC stability after UV irradiation by EPR spectroscopy; assay type: physicochemical
Protocol: EPR measurements were carried out on 25 mg of QRC and BioQ-CPX at room temperature using a Bruker ELEXSYS E-500 spectrometer (Bruker, Billerica, MA, USA) operated at 9.8 GHz (X-band), operating at 6 mW microwave power and 0.15 mT modulation amplitude. To evaluate the effects of light exposure in the samples, UV-A/UV-B irradiator alternatively equipped with lamps of 25 W and 50 W (Light-Emitting Diode Philips, Amsterdam, The Netherlands) was used. Preliminarily, the paramagnetic center of QRC (pure drug) before and after 20 min of UV irradiation (50 W) was characterized. Afterwards, to evaluate the BioQ-CPX capability in preserving QRC from light exposure, aliquots of QRC and BioQ-CPX were irradiated by 25 W or 50 W lamps over time. […] UV irradiation was accomplished up to 60 min for all samples and EPR analysis was carried out every 5 min. Signals were normalized to the QRC mass contained in each sample. Data are reported as mean ± SE (n = 3).

[5] = QRC stability assay in aqueous environments (UV-Vis absorbance at 360 nm); assay type: physicochemical; conditions: for decrease of absorbance ratio at 360 nm: QRC 0.01 mg/mL, room temperature, after 6 h
Protocol: QRC degradation rate was investigated in: (i) PBS pH 7.4 containing 10% v/v of DMSO (solvent A) and (ii) citrate buffer pH 5.5 solution amended with either 10% v/v of DMSO (solvent B) or 10% v/v of DMSO and 0.002% w/v of ACys (solvent C). The prepared QRC aqueous solutions (0.01 mg/mL) were kept at room temperature for 6 h in quartz cuvette located in the UV–Vis spectrophotometer (Shimadzu 1700 instrument, Kyoto, Japan). At scheduled time intervals (10 min), QRC spectra were recorded (from 200 to 700 nm) to highlight any changes in terms of sharp and absorption peaks. Results were reported as absorbance variation at lambda max (360 nm) over time according to the following equation: Abs variation %=Abstn/Abst0×100 where Abst0 and Abstn are the QRC absorbance recorded initially and at each time point, respectively. The stability assays were performed in triplicate. Results are reported as means ± SE.

[6] = design: method as in doi:10.1016/j.jfoodeng.2010.04.001; conditions: Water pH 7; cited from earlier work
[7] = QRC release study, modified transwell support with 1-octanol acceptor; assay type: physicochemical; conditions: QRC release from BioQ-CPX, data up to 30 h
Protocol: QRC release studies were carried out using a modified transwell permeable support (0.45 µm) filled with 5 mg of the BioQ-CPX powder and soaked with 0.2 mL of citrate buffer pH 5.5. The entire system was dipped inside a beaker filled with 8 mL of 1-octanol as a suitable acceptor fluid. […] The experiments were carried out at 37 ± 0.5 °C under constant stirring and protected by light exposure while, immediately after sampling, opportune volumes of fresh acceptor fluid were added to maintain the sink conditions. Data are reported as means ± SE (n = 6). Drug release profiles were elaborated using OriginPro 8.5 software and fitted with semi-empirical model equations. Fittings were validated by using R^2 value where a p-value of less than 0.05 was considered statistically significant.

## O=c1c(O)c(-c2ccc(O)c(O)c2)oc2cc(O)cc(O)c12 [QRC, quercetin]
[1]
  logP: 1.50
[2]; Capryol PGMC
  Appearance of QRC-liquid lipid mixture: Opalescent
[2]; Labrafil M 1944 CS
  Appearance of QRC-liquid lipid mixture: Opalescent
[2]; Labrasol
  Appearance of QRC-liquid lipid mixture: Clear
[2]; Maisine
  Appearance of QRC-liquid lipid mixture: Opalescent
[2]; PEG-18 G/C
  Appearance of QRC-liquid lipid mixture: Slightly Opalescent
[2]; Plurol
  Appearance of QRC-liquid lipid mixture: Opalescent
DPPH antioxidant assay; corresponding to QRC content of the nanocomposite samples, after 1 and 2 h
  %RCD compared with BioQ-CPX samples: same values of %RCD and trends
DPPH antioxidant assay; within 15 min incubation
  scavenging activity compared with BioQ-CPX samples: lower
[3]; Citrate buffer pH 5.5/ACys plus DMSO 10% v/v
  solubility at 120 min: 29 µg/mL
[3]; Citrate buffer pH 5.5/ACys plus β-CD 2% w/v
  solubility at 120 min: 83 µg/mL
[3]; Citrate buffer pH 5.5/ACys plus β-CD 3% w/v
  solubility at 120 min: 103 µg/mL
[3]; in presence of β-CD 2%
  solubility enhancement compared to water solubility: 42 fold
[4]; 25 W or 50 W lamp, irradiation up to 60 min
  UV exposure time until Hpp plateau (antioxidant power exhausted): 25 min
[4]; 20 min UV irradiation, 50 W lamp
  EPR amplitude Hpp normalized to mass: 1.018 u.a.
[4]; not irradiated
  EPR amplitude Hpp normalized to mass: 0.054 u.a.
[5]; PBS pH 7.4 + 10% v/v DMSO
  decrease of absorbance ratio at 360 nm: 42%
[5]; citrate buffer pH 5.5 + 10% v/v DMSO + 0.002% w/v ACys
  QRC stability over time: improved
[5]; citrate buffer pH 5.5 + 10% v/v DMSO
  decrease of absorbance ratio at 360 nm: 25%
[6]
  Solubility: 0.002 [52] mg/mL
[7]
  Korsmeyer-Peppas n: 0.7915
  Korsmeyer-Peppas with Tlag n: 0.6509 ± 0.0127 and 0.6509
[7]; time in hours
  First-Order k: 0.05179
  Korsmeyer-Peppas k: 0.0578
  Korsmeyer-Peppas with Tlag k: 0.0947
  Korsmeyer-Peppas with Tlag: Tlag: 1.440
  Zero-Order k: 0.02997
